One experiment addresses T1, human SGLT1 (Homo sapiens, UniProt P13866).
T1 construct: expressed in transfected cells
T1 sequence (P13866 1-664): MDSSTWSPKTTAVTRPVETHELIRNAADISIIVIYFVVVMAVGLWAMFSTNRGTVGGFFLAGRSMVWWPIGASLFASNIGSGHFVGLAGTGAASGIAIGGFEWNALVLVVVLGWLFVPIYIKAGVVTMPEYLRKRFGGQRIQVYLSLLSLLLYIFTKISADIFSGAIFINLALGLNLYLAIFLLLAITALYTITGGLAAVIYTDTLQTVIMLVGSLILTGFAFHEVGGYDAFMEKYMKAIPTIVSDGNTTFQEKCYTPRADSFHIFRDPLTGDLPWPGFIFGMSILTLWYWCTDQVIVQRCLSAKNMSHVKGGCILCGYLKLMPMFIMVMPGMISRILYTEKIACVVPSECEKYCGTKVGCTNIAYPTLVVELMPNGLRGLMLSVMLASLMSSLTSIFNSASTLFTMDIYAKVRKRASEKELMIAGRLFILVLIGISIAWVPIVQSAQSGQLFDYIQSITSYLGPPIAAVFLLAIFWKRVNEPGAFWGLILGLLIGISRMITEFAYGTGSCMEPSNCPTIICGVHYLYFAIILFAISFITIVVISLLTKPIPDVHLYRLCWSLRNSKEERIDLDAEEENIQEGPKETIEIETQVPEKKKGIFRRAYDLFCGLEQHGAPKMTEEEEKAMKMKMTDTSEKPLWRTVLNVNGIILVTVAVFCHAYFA
In words: SGLT1 in vitro assay: Na-dependent 14C-AMG uptake in CHO-K1 cells stably expressing human SGLT1. In kind it is cell-based. To be noted: CHO-K1 cells stably expressing human SGLT1, 14C-AMG uptake; for inhibition at 0.3 µM: read-out: SGLT1 % Inh @ 0.3 μM; for IC50: compounds of formula (I) where R0 is fluoro. The method, then: (§1) Biological Example 1: SGLT1 and SGLT2 In Vitro Assays
(§2) The ability of the compounds of formula (I) of the present invention to treat an SGLT-mediated condition was determined using the following procedures:
(§3) SGLT1 and SGLT2 were cloned in form of cDNA from human small intestine (Genbank M24847), and from human kidney (Genbank M95549), respectively. Subsequently, each full cDNA was subcloned into pcDNA with each construct's integrity verified through follow-on sequencing. To generate CHO-K1 cells that stably express human SGLT1 or human SGLT2, CHO-K1 cells were transfected using DMRIE-C reagent (Life Technologies, Gaithersburg, Md.). Transfected cells were then selected in the presence of 500 μg/ml of the Geneticin (G418 Cellgro Catalog No. 30234-CI)
(§4) Individual clones were then characterized using the following cell-based assay for sodium-dependent glucose transport:
(§5) Inhibition of SGLT1 and SGLT2 activity was assessed in CHO K1 cells stably expressing either human SGLT1 or SGLT2, using the SGLT specific glucose analog methyl-glucopyranoside (Sigma Catalog No. M-9376). Cells were plated (45,000 cells/well) in white wall 96-well plates (COSTAR, Cat #3903) for 24 hours in growth medium, then a final concentration of 10 mM Na-Butyrate (ALDRICH Cat #30341-0) was added. The cells were incubated for 24 hours. On the day of the assay, cells were rinsed and treated with test compounds (at concentrations of 0.001 μM to 10 μM) in assay buffer (50 mM HEPES, 20 mM Tris base, 5 mM KCl, 1 mM MgCl2, 1 mM CaCl2 and 137 mM NaCl, pH 7.4) for 10 minutes. Cells were then incubated with ^14C-a-methyl-d-glucopyranoside (AMG, Amersham Catalog No. CFB 76), using 0.07 μCi per well in 500 µM AMG final concentration. The cells were incubated for 2 hours at 37° C. with 5% CO2 and washed two times with ice-cold Phosphate Buffer Solution (CELLGRO Catalog No. 21030-CV). The cells were then solubilized by adding 60 μl of MICROSCINT™ 20 and the Na-dependent ^14C-AMG uptake was quantified by measuring radioactivity. Plates were counted in a TopCount (Packard, Meriden, Conn.)
(§6) Representative compounds of the present invention were tested according to the procedures as described in Biological Example 1 and 2 above, with results as listed in Table 5, below. Results are reported as the %-inhibition or IC50 value. Variability for the functional assay was typically within 20%.

For a further experiment, the target named is T2, human SGLT2 (Homo sapiens, UniProt P31639).
T2 construct: expressed in transfected cells
T2 sequence (P31639 1-672): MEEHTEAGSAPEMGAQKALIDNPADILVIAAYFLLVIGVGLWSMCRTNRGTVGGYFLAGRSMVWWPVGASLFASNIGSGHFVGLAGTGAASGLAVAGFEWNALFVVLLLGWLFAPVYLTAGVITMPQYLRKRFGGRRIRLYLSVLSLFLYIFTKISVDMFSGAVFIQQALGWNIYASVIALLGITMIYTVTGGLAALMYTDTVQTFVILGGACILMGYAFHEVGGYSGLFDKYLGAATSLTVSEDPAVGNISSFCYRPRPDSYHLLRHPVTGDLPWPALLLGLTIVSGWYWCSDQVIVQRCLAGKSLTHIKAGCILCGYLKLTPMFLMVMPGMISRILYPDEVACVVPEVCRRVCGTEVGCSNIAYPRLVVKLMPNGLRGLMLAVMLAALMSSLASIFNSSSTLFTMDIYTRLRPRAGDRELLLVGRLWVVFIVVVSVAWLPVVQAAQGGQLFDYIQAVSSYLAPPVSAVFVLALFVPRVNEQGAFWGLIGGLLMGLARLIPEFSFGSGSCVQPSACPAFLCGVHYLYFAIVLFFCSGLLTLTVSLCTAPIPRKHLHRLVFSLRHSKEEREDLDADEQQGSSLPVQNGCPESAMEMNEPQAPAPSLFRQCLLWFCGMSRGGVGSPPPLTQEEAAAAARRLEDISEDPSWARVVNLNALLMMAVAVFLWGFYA
As to the kind of experiment: SGLT2 in vitro assay: Na-dependent 14C-AMG uptake in CHO-K1 cells stably expressing human SGLT2. In kind it is cell-based. The conditions noted are these: CHO-K1 cells stably expressing human SGLT2, 14C-AMG uptake; for inhibition at 0.3 µM: read-out: SGLT2 % Inh @ 0.3 μM; for IC50: compounds of formula (I) where R0 is fluoro. The method, then: as §1, §2, §3, §4, §5, §6

As to `Cc1c(Cc2cc3ccccc3s2)cc([C@@H]2O[C@H](CO)C(F)(F)[C@H](O)[C@H]2O)c(O)c1C` [Compound 60, (2S,3R,4R,6R)-2-(5-(benzo[b]thiophen-2-ylmethyl)-2-hydroxy-3,4-dimethylphenyl)-5,5-difluoro-6-(hydroxymethyl)tetrahydro-2H-pyran-3,4-diol], the figures for the inhibition at 0.3 µM on human SGLT1 and at human SGLT2 were 83.4% and 91.1%, respectively. Also, the IC50 (usually the concentration needed to halve the response being measured) on human SGLT1 was 88 nM; at human SGLT2, 12.2 nM.
Turning to `COc1cc(O)c([C@@H]2O[C@H](CO)C(F)(F)[C@H](O)[C@H]2O)cc1Cc1ccc2c(c1)CCO2` [Compound 62, (2S,3R,4R,6R)-2-[5-(2,3-dihydrobenzofuran-5-ylmethyl)-2-hydroxy-4-methoxy-phenyl]-5,5-difluoro-6-(hydroxymethyl)tetrahydropyran-3,4-diol], on human SGLT1, the inhibition at 0.3 µM was determined as 40.9% and the midpoint of inhibition, the IC50, lay at 708 nM. Also, at human SGLT2, the inhibition at 0.3 µM is 79.6% and inhibition was half-maximal at 17.3 nM (IC50).
Regarding `COC(=O)N1CCc2sc(Cc3cc([C@@H]4O[C@H](CO)C(F)(F)[C@H](O)[C@H]4O)c(O)cc3Cl)cc2C1` [Compound 64], the “SGLT1 % Inh @ 0.3 μM” value on human SGLT1 was 6.2%. In addition, at human SGLT2, the “SGLT2 % Inh @ 0.3 μM” value came to 67.1%.
For `COC(=O)N1CCc2sc(Cc3cc([C@@H]4O[C@H](CO)C(F)(F)[C@H](O)[C@H]4O)c(OC)cc3Cl)cc2C1` [Compound 65], in that order: 16.9% and 56.1%.
For `Cc1cc(O)c([C@@H]2O[C@H](CO)C(F)(F)[C@H](O)[C@H]2O)cc1Cc1ccc(-c2ccc(F)cc2)s1` [Compound 68], the “SGLT1 % Inh @ 0.3 μM” value on human SGLT1 is recorded as 26.6%. Moreover, the “SGLT2 % Inh @ 0.3 μM” value on human SGLT2 is reported as 69.5%.
For `Cc1cc(O)c([C@@H]2O[C@H](CO)C(F)(F)[C@H](O)[C@H]2O)cc1Cc1cc2c(s1)CCN(C(=O)C1CCCC1)C2` [Compound 69], in that order: 64.0% and 67.1%.
Regarding `Cc1cc(O)c([C@@H]2O[C@H](CO)C(F)(F)[C@H](O)[C@H]2O)cc1Cc1ccc(-c2cccc(F)n2)s1` [Compound 70], on human SGLT1, the inhibition at 0.3 µM worked out at 61.2% and half-maximal inhibition (IC50) required 120 nM. On human SGLT2, the inhibition at 0.3 µM is 76.2% and half-maximal inhibition (IC50) was put at 2.7 nM.
Take `Cc1cc(O)c([C@@H]2O[C@H](CO)C(F)(F)[C@H](O)[C@H]2O)cc1Cc1ccc(-c2cccc(F)c2)s1` [Compound 71]: the “SGLT1 % Inh @ 0.3 μM” value on human SGLT1 came to 21.6%. Besides, the “SGLT2 % Inh @ 0.3 μM” value at human SGLT2 is 76.8%.
In the same order, the values of `CC(=O)N1CCc2sc(Cc3cc([C@@H]4O[C@H](CO)C(F)(F)[C@H](O)[C@H]4O)c(O)cc3Cl)cc2C1` [Compound 72] are 38.5% and 73.0%.
In the same order, the values of `COc1cc(Cl)c(Cc2cc3c(s2)CCN(C(C)=O)C3)cc1[C@@H]1O[C@H](CO)C(F)(F)[C@H](O)[C@H]1O` [Compound 73] are 21.4% and 55.0%.
In the same order, the values of `COC(=O)N1CCc2sc(Cc3cc([C@@H]4O[C@H](CO)C(F)(F)[C@H](O)[C@H]4O)c(OC)cc3OC)cc2C1` [Compound 75] are 15.5% and 52.3%.
With `COc1c([C@@H]2O[C@H](CO)C(F)(F)[C@H](O)[C@H]2O)cc(Cc2ccc3c(c2)OCCO3)c2c1CCO2` [Compound 76], at human SGLT1, the inhibition at 0.3 µM worked out at 44.3% and the IC50 stood at 302 nM. Moreover, on human SGLT2, the inhibition at 0.3 µM came to 84.4% and the IC50 came out at 5 nM.
In the case of `COc1cc(OC)c([C@@H]2O[C@H](CO)C(F)(F)[C@H](O)[C@H]2O)cc1Cc1cc2c(s1)CCN(C(C)=O)C2` [Compound 77], at human SGLT1, the “SGLT1 % Inh @ 0.3 μM” value turned out to be 22.6%. The “SGLT2 % Inh @ 0.3 μM” value on human SGLT2 is 51.4%.
As to `COc1cc(C)c(Cc2cc3c(s2)CCN(C(=O)N2CCCC2)C3)cc1[C@@H]1O[C@H](CO)C(F)(F)[C@H](O)[C@H]1O` [Compound 78], at human SGLT1, the “SGLT1 % Inh @ 0.3 μM” value was found to be 28.0%. Besides, the “SGLT2 % Inh @ 0.3 μM” value at human SGLT2 is 71.5%.
In the same order, the values of `Cc1ccc([C@@H]2O[C@H](CO)C(F)(F)[C@H](O)[C@H]2O)cc1Cc1cc2c(s1)CCN(C(=O)c1nccs1)C2` [Compound 79] are 20.3% and 63.6%.
Regarding `Cc1cc(O)c([C@@H]2O[C@H](CO)C(F)(F)[C@H](O)[C@H]2O)cc1Cc1cc2c(s1)CCN(C(=O)c1nccs1)C2` [Compound 80], the “SGLT1 % Inh @ 0.3 μM” value at human SGLT1 was found to be 31.1%. The “SGLT2 % Inh @ 0.3 μM” value at human SGLT2 was found to be 82.1%.
Take `Cc1cc(O)c([C@@H]2O[C@H](CO)C(F)(F)[C@H](O)[C@H]2O)cc1Cc1cc2c(s1)CCN(C#N)C2` [Compound 82]: on human SGLT1, the “SGLT1 % Inh @ 0.3 μM” value is recorded as 50.3% and the IC50 turned out to be 505 nM. Also, on human SGLT2, the “SGLT2 % Inh @ 0.3 μM” value is recorded as 85.4% and 5.5 nM corresponded to half-maximal inhibition (IC50).
With `Cc1cnc(C(=O)N2CCc3sc(Cc4cc([C@@H]5O[C@H](CO)C(F)(F)[C@H](O)[C@H]5O)c(O)cc4C)cc3C2)s1` [Compound 83], the inhibition at 0.3 µM at human SGLT1 stood at 43.3%; at human SGLT2 it was 85.4%. For the same compound, the IC50 against human SGLT1 came to 449 nM; on human SGLT2, 9.7 nM.
Turning to `Cc1ccc([C@@H]2O[C@H](CO)C(F)(F)[C@H](O)[C@H]2O)cc1Cc1cc2c(s1)CCN(C(=O)C1CCCC1)C2` [Compound 84], the “SGLT1 % Inh @ 0.3 μM” value on human SGLT1 came out at 28.5%. In addition, at human SGLT2, the “SGLT2 % Inh @ 0.3 μM” value worked out at 54.4%.
For `COc1ccc(Cc2ccc(O)c([C@@H]3O[C@H](CO)C(F)(F)[C@H](O)[C@H]3O)c2)cc1` [Compound 86], in that order: 17.4% and 69.5%.
As for `COc1ccc(Cc2cc([C@@H]3O[C@H](CO)C(F)(F)[C@H](O)[C@H]3O)c(OC)cc2Cl)cc1` [Compound 87], the “SGLT1 % Inh @ 0.3 μM” value at human SGLT1 amounted to 8.4%. Further, at human SGLT2, the “SGLT2 % Inh @ 0.3 μM” value is 76.0%.

Source of the values: patent US20210238170A1, “5,5-Difluoro- and 5-Fluoro-5-Methyl-C-Glycoside Derivatives Useful As Dual SGLT1 / SGLT2 Modulators” (Janssen Pharmaceutica NV, priority 2018, published 2021).
